We go through 24 compounds from publication PMC8192883, “Novel 1,2,4-oxadiazole derivatives as selective butyrylcholinesterase inhibitors: Design, synthesis and biological evaluation” (EXCLI Journal, 2021).

Like-named read-outs stand apart in the source and are kept apart here. Where only a bound is given, the exact number is not on record here.

Assay [1] deals with T1, AChE (E.C. 3.1.1.7, type V-S) (Electrophorus electricus, UniProt O42275).
T1 construct: purchased Sigma-Aldrich type V-S (catalogue number not given); host or cells: electric eel (natural source)
T1 sequence (O42275 24-633): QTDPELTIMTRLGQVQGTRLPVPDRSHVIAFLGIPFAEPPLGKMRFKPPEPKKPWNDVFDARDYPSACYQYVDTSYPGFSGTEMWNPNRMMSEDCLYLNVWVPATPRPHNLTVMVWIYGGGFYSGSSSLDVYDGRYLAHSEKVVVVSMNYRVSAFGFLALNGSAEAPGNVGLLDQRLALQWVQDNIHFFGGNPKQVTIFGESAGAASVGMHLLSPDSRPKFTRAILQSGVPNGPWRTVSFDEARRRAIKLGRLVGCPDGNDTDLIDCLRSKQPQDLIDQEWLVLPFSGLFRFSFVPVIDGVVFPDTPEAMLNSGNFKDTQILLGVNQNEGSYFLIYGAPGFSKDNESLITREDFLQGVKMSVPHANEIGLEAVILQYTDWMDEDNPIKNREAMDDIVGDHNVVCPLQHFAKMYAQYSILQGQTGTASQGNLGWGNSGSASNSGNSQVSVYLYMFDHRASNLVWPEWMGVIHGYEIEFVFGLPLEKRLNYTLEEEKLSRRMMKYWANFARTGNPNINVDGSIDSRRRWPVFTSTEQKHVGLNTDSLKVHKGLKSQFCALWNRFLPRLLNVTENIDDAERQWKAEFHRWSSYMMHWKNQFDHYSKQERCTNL
Nature of the assay: biochemical. The conditions noted are these: Ellman's method, electric eel AChE, mean ± SD. Here is the method:
(§1) The inhibitory activity of the designed compounds against BuChE and AChE was evaluated using Ellman's method. […] AChE (E.C. 3.1.1.7, type V-S, lyophilized powder, from the electric eel, 1000 units) and BuChE (E.C. 3.1.1.8, from equine serum), acetylthiocholine iodide (ATCI), butyrylthiocholine iodide (BTCI), and 5,5-dithiobis-(2-nitrobenzoic acid) (DTNB) were all acquired from Sigma-Aldrich. Potassium dihydrogen phosphate, dipotassium hydrogen phosphate, potassium hydroxide, and sodium hydrogen carbonate were obtained from Fluka. […] In this regard, each one of the wells included a 50 µL potassium phosphate buffer, 25 µL sample dissolved in 50 % methanol and 50 % DMSO, and 25 µL enzyme (the final concentration 0.22 U/mL in buffer). Thereafter, the wells were pre-incubated for 15 min at room temperature, and 125 µL DTNB (3 mM in buffer) was added to each plate. […] As well, the IC50 values were expressed as mean ± SD. The percentage of enzyme's inhibition was calculated by comparing with a blank sample (100 % activity). The described method was also used for the BuChE inhibition assay.
For orientation: In Ellman's method for cholinesterases, released thiocholine reacts with DTNB.

A further assay addresses T2, BuChE (E.C. 3.1.1.8) (Equus caballus, UniProt P81908).
T2 construct: purchased Sigma-Aldrich; host or cells: equine serum (natural source)
Nature of the assay: biochemical. Conditions: for IC50: Ellman's method, equine serum BuChE, mean ± SD; for SI (selectivity towards BuChE): SI ratio, values match IC50 AChE / IC50 BuChE. Here is the method: as §1

For the next assay, the system named is AChE. More on the design: method as in earlier work. Conditions: Figure 2, known inhibitors, ref Wajid et al., 2019, Wu et al., de Andrade et al., Joubert and Kapp, 2020; cited from earlier work.
A further assay deals with BuChE. The conditions noted are these: ref Wajid et al., 2019, Wu et al., cited from earlier work.
The mark [2] stands for this setting: Figure 2, known inhibitors, de Andrade et al., Joubert and Kapp, 2020.

T2 sequence (P81908 whole entry): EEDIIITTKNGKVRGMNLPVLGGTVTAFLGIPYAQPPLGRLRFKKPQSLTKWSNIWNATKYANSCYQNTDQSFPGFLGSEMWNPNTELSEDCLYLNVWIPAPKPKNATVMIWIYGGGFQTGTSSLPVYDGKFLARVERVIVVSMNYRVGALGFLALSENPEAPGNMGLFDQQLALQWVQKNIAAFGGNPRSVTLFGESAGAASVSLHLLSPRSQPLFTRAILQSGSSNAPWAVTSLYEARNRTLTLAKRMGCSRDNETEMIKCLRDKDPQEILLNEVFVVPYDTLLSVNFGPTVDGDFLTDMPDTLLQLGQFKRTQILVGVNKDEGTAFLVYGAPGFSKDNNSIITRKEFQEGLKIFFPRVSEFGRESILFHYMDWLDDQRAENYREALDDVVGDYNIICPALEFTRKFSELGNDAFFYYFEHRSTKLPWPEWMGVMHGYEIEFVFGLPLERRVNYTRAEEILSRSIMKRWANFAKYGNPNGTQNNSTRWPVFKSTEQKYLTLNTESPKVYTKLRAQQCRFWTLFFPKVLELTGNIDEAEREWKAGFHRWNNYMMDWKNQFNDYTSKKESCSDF

On to `c1ccc(CN2CCC(c3nc(-c4ccccc4)no3)CC2)cc1` [6a, 5-(1-benzylpiperidin-4-yl)-3-phenyl-1,2,4-oxadiazole], for which, in assay [1], the midpoint of inhibition, the IC50, lay at 35.5 µM. On BuChE (E.C. 3.1.1.8), half-maximal inhibition (IC50) was put at 14.2 µM and the “SI (selectivity towards BuChE)” value turned out to be 2.49.

For the compound `Cc1ccc(-c2noc(C3CCN(Cc4ccccc4)CC3)n2)cc1` [6b, 5-(1-benzylpiperidin-4-yl)-3-(p-tolyl)-1,2,4-oxadiazole], the IC50 – broadly, the concentration at which inhibition is half-maximal – in assay [1] was greater than 100 µM; on BuChE (E.C. 3.1.1.8) it was 9.81 µM. Also, the “SI (selectivity towards BuChE)” value on BuChE (E.C. 3.1.1.8) was greater than 10.19.

For `Clc1ccc(-c2noc(C3CCN(Cc4ccccc4)CC3)n2)cc1` [6c, 5-(1-benzylpiperidin-4-yl)-3-(4-chlorophenyl)-1,2,4-oxadiazole], the IC50 (in assay [1]; against BuChE (E.C. 3.1.1.8)) was greater than 100 µM in each case.

Regarding `Fc1ccc(-c2noc(C3CCN(Cc4ccccc4)CC3)n2)cc1` [6d, 5-(1-benzylpiperidin-4-yl)-3-(4-fluorophenyl)-1,2,4-oxadiazole], the IC50 in assay [1] came to 21.16 ± 0.13 µM; against BuChE (E.C. 3.1.1.8) it was 24.8 ± 0.97 µM. For the same compound, the “SI (selectivity towards BuChE)” value on BuChE (E.C. 3.1.1.8) is listed as 0.85.

In the case of `Fc1ccc(CN2CCC(c3nc(-c4ccccc4)no3)CC2)cc1` [6e, 5-(1-(4-fluorobenzyl)piperidin-4-yl)-3-phenyl-1,2,4-oxadiazole], the IC50 (in assay [1]; against BuChE (E.C. 3.1.1.8)) was greater than 100 µM throughout.

As to `Cc1ccc(-c2noc(C3CCN(Cc4ccc(F)cc4)CC3)n2)cc1` [6f, 5-(1-(4-fluorobenzyl)piperidin-4-yl)-3-(p-tolyl)-1,2,4-oxadiazole], the IC50 in assay [1] is greater than 100 µM. Also, at BuChE (E.C. 3.1.1.8), the midpoint of inhibition, the IC50, lay at 50.7 ± 0.06 µM and the “SI (selectivity towards BuChE)” value is greater than 1.97.

For `Fc1ccc(CN2CCC(c3nc(-c4ccc(Cl)cc4)no3)CC2)cc1` [6g, 3-(4-chlorophenyl)-5-(1-(4-fluorobenzyl)piperidin-4-yl)-1,2,4-oxadiazole], the IC50 (in assay [1]; against BuChE (E.C. 3.1.1.8)) was greater than 100 µM throughout.

For `Fc1ccc(CN2CCC(c3nc(-c4ccc(F)cc4)no3)CC2)cc1` [6h, 5-(1-(4-fluorobenzyl)piperidin-4-yl)-3-(4-fluorophenyl)-1,2,4-oxadiazole], the IC50 (in assay [1]; on BuChE (E.C. 3.1.1.8)) was greater than 100 µM each time.

Consider `Clc1ccc(CN2CCC(c3nc(-c4ccccc4)no3)CC2)cc1` [6i, 5-(1-(4-chlorobenzyl)piperidin-4-yl)-3-phenyl-1,2,4-oxadiazole], for which the IC50 (in assay [1]; on BuChE (E.C. 3.1.1.8)) was greater than 100 µM each time.

For the compound `Cc1ccc(-c2noc(C3CCN(Cc4ccc(Cl)cc4)CC3)n2)cc1` [6j, 5-(1-(4-chlorobenzyl)piperidin-4-yl)-3-(p-tolyl)-1,2,4-oxadiazole], the figures for the IC50 (in assay [1]; against BuChE (E.C. 3.1.1.8)) were greater than 100 µM and 50.3 ± 0.77 µM, respectively. At BuChE (E.C. 3.1.1.8), the “SI (selectivity towards BuChE)” value was greater than 1.98.

`Clc1ccc(CN2CCC(c3nc(-c4ccc(Cl)cc4)no3)CC2)cc1` [6k, 5-(1-(4-chlorobenzyl)piperidin-4-yl)-3-(4-chlorophenyl)-1,2,4-oxadiazole]: the IC50 (in assay [1]; at BuChE (E.C. 3.1.1.8)) was greater than 100 µM in each case.

Consider `Fc1ccc(-c2noc(C3CCN(Cc4ccc(Cl)cc4)CC3)n2)cc1` [6l, 5-(1-(4-chlorobenzyl)piperidin-4-yl)-3-(4-fluorophenyl)-1,2,4-oxadiazole], for which the IC50 (in assay [1]; against BuChE (E.C. 3.1.1.8)) was greater than 100 µM each time.

With `Clc1ccccc1CN1CCC(c2nc(-c3ccccc3)no2)CC1` [6m, 5-(1-(2-chlorobenzyl)piperidin-4-yl)-3-phenyl-1,2,4-oxadiazole], the IC50 (in assay [1]; at BuChE (E.C. 3.1.1.8)) was greater than 100 µM each time.

`Cc1ccc(-c2noc(C3CCN(Cc4ccccc4Cl)CC3)n2)cc1` [6n, 5-(1-(2-chlorobenzyl)piperidin-4-yl)-3-(p-tolyl)-1,2,4-oxadiazole] came in with an IC50 in assay [1] greater than 100 µM. Besides, on BuChE (E.C. 3.1.1.8), the IC50 came out at 5.07 µM and the “SI (selectivity towards BuChE)” value is “greater than 19.72”.

Regarding `Clc1ccc(-c2noc(C3CCN(Cc4ccccc4Cl)CC3)n2)cc1` [6o, 5-(1-(2-chlorobenzyl)piperidin-4-yl)-3-(4-chlorophenyl)-1,2,4-oxadiazole], the IC50 in assay [1] was greater than 100 µM; against BuChE (E.C. 3.1.1.8) it was 81.2 ± 0.98 µM. In addition, the “SI (selectivity towards BuChE)” value on BuChE (E.C. 3.1.1.8) was greater than 1.23.

Regarding `Fc1ccc(-c2noc(C3CCN(Cc4ccccc4Cl)CC3)n2)cc1` [6p, 5-(1-(2-chlorobenzyl)piperidin-4-yl)-3-(4-fluorophenyl)-1,2,4-oxadiazole], the half-inhibitory concentration (IC50) (in assay [1]; against BuChE (E.C. 3.1.1.8)) was greater than 100 µM each time.

Consider `Cc1ccc(CN2CCC(c3nc(-c4ccccc4)no3)CC2)cc1` [6q, 5-(1-(4-methylbenzyl)piperidin-4-yl)-3-phenyl-1,2,4-oxadiazole], for which the IC50 (in assay [1]; on BuChE (E.C. 3.1.1.8)) was greater than 100 µM in each case.

Consider `Cc1ccc(CN2CCC(c3nc(-c4ccc(C)cc4)no3)CC2)cc1` [6r, 5-(1-(4-methylbenzyl)piperidin-4-yl)-3-(p-tolyl)-1,2,4-oxadiazole], for which the IC50 in assay [1] was greater than 100 µM. At BuChE (E.C. 3.1.1.8), half-maximal inhibition (IC50) required 62.8 ± 0.65 µM and the “SI (selectivity towards BuChE)” value is recorded as greater than 1.59.

`Cc1ccc(CN2CCC(c3nc(-c4ccc(Cl)cc4)no3)CC2)cc1` [6s, 3-(4-chlorophenyl)-5-(1-(4-methylbenzyl)piperidin-4-yl)-1,2,4-oxadiazole]: the IC50 (in assay [1]; on BuChE (E.C. 3.1.1.8)) was greater than 100 µM in each case.

As to `Cc1ccc(CN2CCC(c3nc(-c4ccc(F)cc4)no3)CC2)cc1` [6t, 3-(4-fluorophenyl)-5-(1-(4-methylbenzyl)piperidin-4-yl)-1,2,4-oxadiazole], the IC50 (in assay [1]; on BuChE (E.C. 3.1.1.8)) was greater than 100 µM each time.

For `CCCCCCCNC(=O)Oc1cccc(-c2coc3c4c(ccc3c2=O)OC(C)(C)C=C4)c1F` [compound 1], the IC50 in the assay on AChE is 297 µM; with BuChE (setting [2]), 0.222 µM.

Consider `O=C(Nc1c(Cl)cccc1Cl)c1ccc(Br)cc1` [compound 2], for which, in the assay on AChE, the “AChE IC50” value was “inactive”. In the assay with BuChE (Figure 2, known inhibitor), the IC50 was 0.8 µM.

`CC(=O)N[C@@H](Cn1cc(-c2ccccc2)nn1)C(=O)NCC1CCN(Cc2ccccc2)CC1` [compound 3]: the IC50 with AChE was greater than 10 µM; in the assay on BuChE (setting [2]), 0.00017 µM.

In the case of `COc1cc(C2C3=C(CCCC3=O)NC3=C2C(=O)CCC3)ccc1OCc1ccc(F)cc1` [compound 4], the IC50 in the assay with AChE is 125 µM; in the assay with BuChE (setting [2]), 0.098 µM.
